This data set can be described thus: plasma from a Sprague Dawley rat. As to conditions: 37 °C, up to 15 min.

With H-ACGLSGLGVA-NH2, the fragment found result was “[^18F]FNA, 5 min”.
